Measured values published in ChEMBL document CHEMBL4229379, “Synthesis and structure-activity relationship of novel bisindole amidines active against MDR Gram-positive and Gram-negative bacteria” (Eur J Med Chem, 2018).
Values after ≈ are worked out from the molar mass of the structure shown.

Columns and labels:
Staphylococcus aureus [1] = test: Antibacterial activity against methicillin-sensitive Staphylococcus aureus 15 after 18 hrs by CLSI broth microdilution method; format: functional; details: Staphylococcus aureus, 15, 18 h
[2] = tested on: Staphylococcus epidermidis; test: Antibacterial activity against methicillin-sensitive Staphylococcus epidermidis ATCC 12228 after 18 hrs by CLSI broth microdilution method; format: functional; details: ATCC 12228, 18 h
Escherichia coli [3] = test: Antibacterial activity against extended-spectrum beta-lactamase deficient Escherichia coli 12-14 after 18 hrs by CLSI broth microdilution method; format: functional; details: 12-14, 18 h
[4] = tested on: Acinetobacter calcoaceticus; test: Antibacterial activity against Acinetobacter calcoaceticus ATCC 19606 after 18 hrs by CLSI broth microdilution method; format: functional; details: ATCC 19606, 18 h
Providencia rettgeri = test: Antibacterial activity against Providencia rettgeri ATCC 31052 after 18 hrs by CLSI broth microdilution method; format: functional; details: ATCC 31052, 18 h
Enterococcus faecalis [5] = test: Antibacterial activity against vancomycin-sensitive Enterococcus faecalis ATCC 29212 after 18 hrs by CLSI broth microdilution method; format: functional; details: ATCC 29212, 18 h
Enterococcus faecalis [6] = test: Antibacterial activity against vancomycin-sensitive Enterococcus faecalis 12-5 after 18 hrs by CLSI broth microdilution method; format: functional; details: 12-5, 18 h
Staphylococcus aureus [7] = test: Antibacterial activity against methicillin-sensitive Staphylococcus aureus ATCC 29213 after 18 hrs by CLSI broth microdilution method; format: functional; details: ATCC 29213, 18 h
[8] = tested on: Stenotrophomonas maltophilia; test: Antibacterial activity against Stenotrophomonas maltophilia ATCC 13636 after 18 hrs by CLSI broth microdilution method; format: functional; details: ATCC 13636, 18 h
Escherichia coli [9] = test: Antibacterial activity against extended-spectrum beta-lactamase harboring Escherichia coli 12-15 after 18 hrs by CLSI broth microdilution method; format: functional; details: 12-15, 18 h
Escherichia coli [10] = test: Antibacterial activity against extended-spectrum beta-lactamase deficient Escherichia coli ATCC 25922 after 18 hrs by CLSI broth microdilution method; format: functional; details: ATCC 25922, 18 h
Klebsiella pneumoniae [11] = test: Antibacterial activity against new delhi metallo-beta-lactamase-1 harboring Klebsiella pneumoniae ATCC BAA-2146 after 18 hrs by CLSI broth microdilution method; format: functional; details: ATCC BAA-2146, 18 h
Enterococcus faecium [12] = test: Antibacterial activity against vancomycin-sensitive Enterococcus faecium 12-3 after 18 hrs by CLSI broth microdilution method; format: functional; details: 12-3, 18 h
Klebsiella pneumoniae [13] = test: Antibacterial activity against extended-spectrum beta-lactamase harboring Klebsiella pneumoniae 12-8 after 18 hrs by CLSI broth microdilution method; format: functional; details: 12-8, 18 h
Enterococcus faecalis [14] = test: Antibacterial activity against vancomycin-resistant Enterococcus faecalis 09-9 after 18 hrs by CLSI broth microdilution method; format: functional; details: 09-9, 18 h
Serratia marcescens = test: Antibacterial activity against Serratia marcescens ATCC 21074 after 18 hrs by CLSI broth microdilution method; format: functional; details: ATCC 21074, 18 h
Klebsiella aerogenes = test: Antibacterial activity against Enterobacter aerogenes ATCC 13048 after 18 hrs by CLSI broth microdilution method; format: functional; details: ATCC 13048, 18 h
Enterococcus faecalis [15] = test: Antibacterial activity against vancomycin-resistant Enterococcus faecalis ATCC 51299 after 18 hrs by CLSI broth microdilution method; format: functional; details: ATCC 51299, 18 h
Proteus mirabilis = test: Antibacterial activity against Proteus mirabilis 12-6 after 18 hrs by CLSI broth microdilution method; format: functional; details: 12-6, 18 h
Pseudomonas aeruginosa [16] = test: Antibacterial activity against Pseudomonas aeruginosa PAO1 after 18 hrs by CLSI broth microdilution method; format: functional; details: PAO1, 18 h
Proteus vulgaris = test: Antibacterial activity against Proteus vulgaris ATCC 29905 after 18 hrs by CLSI broth microdilution method; format: functional; details: ATCC 29905, 18 h
[17] = tested on: Staphylococcus epidermidis; test: Antibacterial activity against methicillin-resistant Staphylococcus epidermidis 12-8 after 18 hrs by CLSI broth microdilution method; format: functional; details: 12-8, 18 h
Enterobacter cloacae = test: Antibacterial activity against Enterobacter cloacae ATCC 43560 after 18 hrs by CLSI broth microdilution method; format: functional; details: ATCC 43560, 18 h
[18] = Cytotoxicity against HEK293T cells assessed as reduction in cell viability after 48 hrs by MTS assay; format: cell-based, HEK-293T; details: human
Enterococcus faecium [19] = test: Antibacterial activity against vancomycin-resistant Enterococcus faecium 12-1 after 18 hrs by CLSI broth microdilution method; format: functional; details: 12-1, 18 h
Enterococcus faecium [20] = test: Antibacterial activity against vancomycin-resistant Enterococcus faecium ATCC 700221 after 18 hrs by CLSI broth microdilution method; format: functional; details: ATCC 700221, 18 h
Klebsiella pneumoniae [21] = test: Antibacterial activity against extended-spectrum beta-lactamase deficient Klebsiella pneumoniae 7 after 18 hrs by CLSI broth microdilution method; format: functional; details: Klebsiella pneumoniae, 7, 18 h
Staphylococcus aureus [22] = test: Antibacterial activity against methicillin-resistant Staphylococcus aureus ATCC 33591 after 18 hrs by CLSI broth microdilution method; format: functional; details: ATCC 33591, 18 h
Escherichia coli [23] = test: Antibacterial activity against extended-spectrum beta-lactamase deficient Escherichia coli 1515 after 18 hrs by CLSI broth microdilution method; format: functional; details: Escherichia coli, 1515, 18 h
Staphylococcus aureus [24] = test: Antibacterial activity against methicillin-resistant Staphylococcus aureus 12-33 after 18 hrs by CLSI broth microdilution method; format: functional; details: 12-33, 18 h
Klebsiella pneumoniae [25] = test: Antibacterial activity against extended-spectrum beta-lactamase harboring Klebsiella pneumoniae ATCC 700603 after 18 hrs by CLSI broth microdilution method; format: functional; details: Klebsiella pneumoniae, 700603, 18 h
[26] = tested on: Staphylococcus epidermidis; test: Antibacterial activity against methicillin-sensitive Staphylococcus epidermidis 12-6 after 18 hrs by CLSI broth microdilution method; format: functional; details: 12-6, 18 h
Citrobacter freundii = test: Antibacterial activity against Citrobacter freundii ATCC 43864 after 18 hrs by CLSI broth microdilution method; format: functional; details: ATCC 43864, 18 h
Pseudomonas aeruginosa [27] = test: Antibacterial activity against Pseudomonas aeruginosa ATCC 27853 after 18 hrs by CLSI broth microdilution method; format: functional; details: ATCC 27853, 18 h
Pseudomonas aeruginosa [28] = test: Antibacterial activity against Pseudomonas aeruginosa 12-16 after 18 hrs by CLSI broth microdilution method; format: functional; details: 12-16, 18 h
Klebsiella pneumoniae [29] = test: Antibacterial activity against extended-spectrum beta-lactamase deficient Klebsiella pneumoniae 12-4 after 18 hrs by CLSI broth microdilution method; format: functional; details: 12-4, 18 h
Staphylococcus aureus [30] = test: Antibacterial activity against methicillin-sensitive Staphylococcus aureus 12-28 after 18 hrs by CLSI broth microdilution method; format: functional; details: 12-28, 18 h

SMILES | MIC (Staphylococcus aureus [1]) | MIC [2] | MIC (Escherichia coli [3]) | MIC [4] | MIC (Providencia rettgeri) | MIC (Enterococcus faecalis [5]) | MIC (Enterococcus faecalis [6]) | MIC (Staphylococcus aureus [7]) | MIC [8] | MIC (Escherichia coli [9]) | MIC (Escherichia coli [10]) | MIC (Klebsiella pneumoniae [11]) | MIC (Enterococcus faecium [12]) | MIC (Klebsiella pneumoniae [13]) | MIC (Enterococcus faecalis [14]) | MIC (Serratia marcescens) | MIC (Klebsiella aerogenes) | MIC (Enterococcus faecalis [15]) | MIC (Proteus mirabilis) | MIC (Pseudomonas aeruginosa [16]) | also measured
CNC(=N)c1ccc2cc(-c3ccc(-c4cc5ccc(C(=N)NC)cc5[nH]4)cc3)[nH]c2c1 | 0.25 µg/mL (≈ 0.595 µM) | 0.12 µg/mL (≈ 0.285 µM) | 8 µg/mL (≈ 19 µM) | 128 µg/mL (≈ 304 µM) | 64 µg/mL (≈ 152 µM) | 2 µg/mL (≈ 4.76 µM) | 2 µg/mL (≈ 4.76 µM) | 0.25 µg/mL (≈ 0.595 µM) | 16 µg/mL (≈ 38 µM) | 8 µg/mL (≈ 19 µM) | 4 µg/mL (≈ 9.51 µM) | 64 µg/mL (≈ 152 µM) | 2 µg/mL (≈ 4.76 µM) | 32 µg/mL (≈ 76.1 µM) | 1 µg/mL (≈ 2.38 µM) | 64 µg/mL (≈ 152 µM) | 16 µg/mL (≈ 38 µM) | 2 µg/mL (≈ 4.76 µM) | 64 µg/mL (≈ 152 µM) | 64 µg/mL (≈ 152 µM) | MIC (Proteus vulgaris): 64 µg/mL (≈ 152 µM); MIC [17]: 0.25 µg/mL (≈ 0.595 µM); MIC (Enterobacter cloacae): 8 µg/mL (≈ 19 µM); CC50 at 48 h [18]: 28 µg/mL (≈ 66.6 µM); MIC (Enterococcus faecium [19]): 0.5 µg/mL (≈ 1.19 µM); MIC (Enterococcus faecium [20]): 0.5 µg/mL (≈ 1.19 µM); MIC (Klebsiella pneumoniae [21]): 16 µg/mL (≈ 38 µM); MIC (Staphylococcus aureus [22]): 0.25 µg/mL (≈ 0.595 µM); MIC (Escherichia coli [23]): 16 µg/mL (≈ 38 µM); MIC (Staphylococcus aureus [24]): 0.25 µg/mL (≈ 0.595 µM); MIC (Klebsiella pneumoniae [25]): 64 µg/mL (≈ 152 µM); MIC [26]: 0.12 µg/mL (≈ 0.285 µM); MIC (Citrobacter freundii): 16 µg/mL (≈ 38 µM); MIC (Pseudomonas aeruginosa [27]): 16 µg/mL (≈ 38 µM); MIC (Pseudomonas aeruginosa [28]): 64 µg/mL (≈ 152 µM); MIC (Klebsiella pneumoniae [29]): 32 µg/mL (≈ 76.1 µM); MIC (Staphylococcus aureus [30]): 0.25 µg/mL (≈ 0.595 µM)
CCC(C)NC(=N)c1ccc2cc(-c3cncc(-c4cc5ccc(C(=N)NC(C)CC)cc5[nH]4)c3)[nH]c2c1 (centres undefined) | 16 µg/mL (≈ 31.6 µM) | 8 µg/mL (≈ 15.8 µM) | > 64 µg/mL | > 64 µg/mL | > 64 µg/mL | > 64 µg/mL | > 64 µg/mL | 8 µg/mL (≈ 15.8 µM) | > 64 µg/mL | > 64 µg/mL | > 64 µg/mL | > 64 µg/mL | > 64 µg/mL | > 64 µg/mL | > 64 µg/mL | > 64 µg/mL | > 64 µg/mL | > 64 µg/mL | > 64 µg/mL | > 64 µg/mL | MIC (Proteus vulgaris): > 64 µg/mL; MIC [17]: 8 µg/mL (≈ 15.8 µM); MIC (Enterobacter cloacae): > 64 µg/mL; CC50 at 48 h [18]: 22.8 µg/mL (≈ 45.1 µM); MIC (Enterococcus faecium [19]): 64 µg/mL (≈ 127 µM); MIC (Enterococcus faecium [20]): > 64 µg/mL; MIC (Klebsiella pneumoniae [21]): > 64 µg/mL; MIC (Staphylococcus aureus [22]): 8 µg/mL (≈ 15.8 µM); MIC (Escherichia coli [23]): > 64 µg/mL; MIC (Staphylococcus aureus [24]): 16 µg/mL (≈ 31.6 µM); MIC (Klebsiella pneumoniae [25]): > 64 µg/mL; MIC [26]: 8 µg/mL (≈ 15.8 µM); MIC (Citrobacter freundii): > 64 µg/mL; MIC (Pseudomonas aeruginosa [27]): > 64 µg/mL; MIC (Pseudomonas aeruginosa [28]): > 64 µg/mL; MIC (Klebsiella pneumoniae [29]): > 64 µg/mL; MIC (Staphylococcus aureus [30]): 16 µg/mL (≈ 31.6 µM)
